# In paper PMC9007951, “Systematically evaluating DOTATATE and FDG as PET immuno-imaging tracers of cardiovascular inflammation” (Scientific Reports, 2022):
# Read-outs that look alike come from different tables or passages of the source.
# Assay: Timed organ biodistribution of [^64Cu]Cu-DOTATATE by ex vivo gamma counting
# Assay type: in vivo, mice
# Conditions: mouse, intravenous, 1.85 MBq, total radioactivity, median (IQR); for tissue uptake at 1 min: 1 min after injection; for tissue uptake at 5 min: 5 min after injection; for tissue uptake at 0.25 h: 15 min after injection; for tissue uptake at 0.5 h: 30 min after injection; for tissue uptake at 2 h: 120 min after injection; for tissue uptake at 1 h: 60 min after injection
# Description: Wild-type and atherosclerotic animals were injected with approximately 1.85 MBq of [^64Cu]Cu-DOTATATE and euthanized at either 1, 5, 15, 30, 60 or 120 min after injection (Supplementary Fig. S1A) to evaluate the tracer’s biodistribution. After euthanasia, an insulin syringe was used to collect blood samples from the right ventricle. Blood samples were used for the establishment of pharmacokinetics profile. Mice were then perfused with 20 mL of phosphate-buffered saline (PBS) and tissues of interest (heart, aorta, bone marrow, spleen, liver, stomach, bladder, kidneys, intestines, lungs, adrenal gland, muscles and pancreas) were harvested. Tissues were blotted for gamma counting on a Wizard2 2480 automatic gamma counter (Perkin Elmer, Waltham, MA). Values were corrected for decay and normalized to tissue weight to express radioactivity concentration as percentage injected dose per gram (%ID/g). […] To investigate the tracer’s distribution within different blood compartments, after gamma counting, 100 μL of blood were spun down at 2000 g for 15 min at 4 °C. Plasma (supernatant) and cells (pellet) were gamma counted and expressed as percentage of total activity. The remainder of the blood was separated using Lymphoprep density gradient medium (Nycomed Pharma, Zurich, Switzerland) following manufacturer’s instructions. Percentage of activity in mononuclear and polynuclear cells was calculated.
# [1] = abdominal aorta, female Apoe^-/- mice 12 weeks on Western Diet, N=3-8, read-out: Tissue radioactivity, abdominal aorta
# [2] = abdominal aorta, female C57BL/6 mice, N=3-7, read-out: Tissue radioactivity, abdominal aorta
# [3] = adrenal gland, female Apoe^-/- mice 12 weeks on Western Diet, N=3-8, read-out: Tissue radioactivity, adrenal gland
# [4] = adrenal gland, female C57BL/6 mice, N=3-7, read-out: Tissue radioactivity, adrenal gland
# [5] = aortic arch, female Apoe^-/- mice 12 weeks on Western Diet, N=3-8, read-out: Tissue radioactivity, aortic arch
# [6] = aortic arch, female C57BL/6 mice, N=3-7, read-out: Tissue radioactivity, aortic arch
# [7] = bladder, female Apoe^-/- mice 12 weeks on Western Diet, N=3-8, read-out: Tissue radioactivity, bladder
# [8] = bladder, female C57BL/6 mice, N=3-7, read-out: Tissue radioactivity, bladder
# [9] = bone marrow, female Apoe^-/- mice 12 weeks on Western Diet, N=3-8, read-out: Tissue radioactivity, bone marrow
# [10] = bone marrow, female C57BL/6 mice, N=3-7, read-out: Tissue radioactivity, bone marrow
# [11] = fat, female Apoe^-/- mice 12 weeks on Western Diet, N=3-8, read-out: Tissue radioactivity, fat
# [12] = fat, female C57BL/6 mice, N=3-7, read-out: Tissue radioactivity, fat
# [13] = heart, female Apoe^-/- mice 12 weeks on Western Diet, N=3-8, read-out: Tissue radioactivity, heart
# [14] = heart, female C57BL/6 mice, N=3-7, read-out: Tissue radioactivity, heart
# [15] = kidneys, female Apoe^-/- mice 12 weeks on Western Diet, N=3-8, read-out: Tissue radioactivity, kidneys
# [16] = kidneys, female C57BL/6 mice, N=3-7, read-out: Tissue radioactivity, kidneys
# [17] = large intestine, female Apoe^-/- mice 12 weeks on Western Diet, N=3-8, read-out: Tissue radioactivity, large intestine
# [18] = large intestine, female C57BL/6 mice, N=3-7, read-out: Tissue radioactivity, large intestine
# [19] = liver, female Apoe^-/- mice 12 weeks on Western Diet, N=3-8, read-out: Tissue radioactivity, liver
compound,measurement,setting,value
"C[C@@H](O)[C@H](NC(=O)[C@@H]1CSSC[C@H](NC(=O)[C@@H](Cc2ccccc2)NC(=O)CN2CCN(CC(=O)O)CCN(CC(=O)O)CCN(CC(=O)O)CC2)C(=O)N[C@@H](Cc2ccc(O)cc2)C(=O)N[C@H](Cc2c[nH]c3ccccc23)C(=O)N[C@@H](CCCCN)C(=O)N[C@@H]([C@@H](C)O)C(=O)N1)C(=O)O [[^64Cu]Cu-DOTATATE, metal not drawn]",tissue uptake at 1 min,[1],3.1 %ID/g
same,tissue uptake at 5 min,[1],3.2 %ID/g
same,tissue uptake at 0.25 h,[1],2.1 %ID/g
same,tissue uptake at 0.5 h,[1],2.5 %ID/g
same,tissue uptake at 2 h,[1],2.1 %ID/g
same,tissue uptake at 1 min,[2],5.1 %ID/g
same,tissue uptake at 5 min,[2],3.8 %ID/g
same,tissue uptake at 0.25 h,[2],2.4 %ID/g
same,tissue uptake at 0.5 h,[2],1.7 %ID/g
same,tissue uptake at 1 h,[2],1.3 %ID/g
same,tissue uptake at 2 h,[2],0.7 %ID/g
same,tissue uptake at 1 min,[3],1.4 %ID/g
same,tissue uptake at 5 min,[3],1.2 %ID/g
same,tissue uptake at 0.25 h,[3],1.4 %ID/g
same,tissue uptake at 0.5 h,[3],1.5 %ID/g
same,tissue uptake at 1 h,[3],1.4 %ID/g
same,tissue uptake at 2 h,[3],1.1 %ID/g
same,tissue uptake at 0.25 h,[4],1.7 %ID/g
same,tissue uptake at 0.5 h,[4],1.6 %ID/g
same,tissue uptake at 1 h,[4],1.6 %ID/g
same,tissue uptake at 2 h,[4],0.6 %ID/g
same,tissue uptake at 1 min,[5],2.9 %ID/g
same,tissue uptake at 0.25 h,[5],1.7 %ID/g
same,tissue uptake at 0.5 h,[5],1.7 %ID/g
same,tissue uptake at 1 min,[6],2.8 %ID/g
same,tissue uptake at 0.25 h,[6],1.3 %ID/g
same,tissue uptake at 0.5 h,[6],1.1 %ID/g
same,tissue uptake at 1 h,[6],1.1 %ID/g
same,tissue uptake at 2 h,[6],1.2 %ID/g
same,tissue uptake at 1 min,[7],1.7 %ID/g
same,tissue uptake at 5 min,[7],98.7 %ID/g
same,tissue uptake at 0.25 h,[7],38.9 %ID/g
same,tissue uptake at 0.5 h,[7],2.9 %ID/g
same,tissue uptake at 1 h,[7],4.7 %ID/g
same,tissue uptake at 2 h,[7],2.4 %ID/g
same,tissue uptake at 1 min,[8],4.6 %ID/g
same,tissue uptake at 5 min,[8],36.4 %ID/g
same,tissue uptake at 0.25 h,[8],7.9 %ID/g
same,tissue uptake at 0.5 h,[8],6.8 %ID/g
same,tissue uptake at 2 h,[8],10.4 %ID/g
same,tissue uptake at 1 min,[9],3.1 %ID/g
same,tissue uptake at 5 min,[9],2.3 %ID/g
same,tissue uptake at 0.25 h,[9],2.6 %ID/g
same,tissue uptake at 2 h,[9],2.7 %ID/g
same,tissue uptake at 5 min,[10],4.3 %ID/g
same,tissue uptake at 0.25 h,[10],3.5 %ID/g
same,tissue uptake at 1 h,[10],2.1 %ID/g
same,tissue uptake at 2 h,[10],2.5 %ID/g
same,tissue uptake at 1 min,[11],0.3 %ID/g
same,tissue uptake at 5 min,[11],0.4 %ID/g
same,tissue uptake at 0.25 h,[11],0.4 %ID/g
same,tissue uptake at 0.5 h,[11],0.3 %ID/g
same,tissue uptake at 1 h,[11],0.2 %ID/g
same,tissue uptake at 2 h,[11],0.2 %ID/g
same,tissue uptake at 1 min,[12],1.1 %ID/g
same,tissue uptake at 5 min,[12],1.3 %ID/g
same,tissue uptake at 0.25 h,[12],0.8 %ID/g
same,tissue uptake at 0.5 h,[12],0.5 %ID/g
same,tissue uptake at 1 h,[12],0.3 %ID/g
same,tissue uptake at 2 h,[12],0.2 %ID/g
same,tissue uptake at 1 min,[13],2.3 %ID/g
same,tissue uptake at 5 min,[13],1.4 %ID/g
same,tissue uptake at 0.25 h,[13],1.1 %ID/g
same,tissue uptake at 1 h,[13],1.3 %ID/g
same,tissue uptake at 2 h,[13],1.4 %ID/g
same,tissue uptake at 1 min,[14],3.8 %ID/g
same,tissue uptake at 5 min,[14],2.1 %ID/g
same,tissue uptake at 0.25 h,[14],1.1 %ID/g
same,tissue uptake at 1 h,[14],0.8 %ID/g
same,tissue uptake at 2 h,[14],0.7 %ID/g
same,tissue uptake at 1 min,[15],15.6 %ID/g
same,tissue uptake at 5 min,[15],22.9 %ID/g
same,tissue uptake at 0.25 h,[15],13.2 %ID/g
same,tissue uptake at 0.5 h,[15],8.8 %ID/g
same,tissue uptake at 1 min,[16],26.8 %ID/g
same,tissue uptake at 5 min,[16],20.5 %ID/g
same,tissue uptake at 0.25 h,[16],11.5 %ID/g
same,tissue uptake at 0.5 h,[16],8.2 %ID/g
same,tissue uptake at 1 h,[16],6.1 %ID/g
same,tissue uptake at 1 min,[17],1.3 %ID/g
same,tissue uptake at 5 min,[17],1.3 %ID/g
same,tissue uptake at 0.5 h,[17],2.8 %ID/g
same,tissue uptake at 2 h,[17],3.8 %ID/g
same,tissue uptake at 1 min,[18],2.7 %ID/g
same,tissue uptake at 5 min,[18],1.6 %ID/g
same,tissue uptake at 0.5 h,[18],1.7 %ID/g
same,tissue uptake at 1 h,[18],3 %ID/g
same,tissue uptake at 2 h,[18],3.1 %ID/g
same,tissue uptake at 1 min,[19],4.4 %ID/g
same,tissue uptake at 5 min,[19],4.9 %ID/g
same,tissue uptake at 0.25 h,[19],8.6 %ID/g
